Data published in paper PMC9178925 (Biochemical pharmacology, 2022).
Values joined by “and” are separate entries in the source; they are usually repeats but may differ in a detail not shown here. Equal values may be shown once.

Columns and labels:
α1β2(N265S)γ2S GABAAR = α1β2(N265S)γ2S GABAAR (Rattus norvegicus, UniProt P62813+P63138, N289S); assay: Two-electrode voltage clamp, potentiation of low GABA currents in oocytes; assay type: cell-based, rat (β2 rat or human)
α1β2γ2L GABAAR [1] = target: T1, α1β2γ2L GABAAR (Rattus norvegicus, UniProt P62813+P63138); assay: Two-electrode voltage clamp, concentration-response and mechanistic; assay type: cell-based, rat (β2 rat or human)
α1β2γ2S GABAAR = α1β2γ2S GABAAR (Rattus norvegicus, UniProt P62813+P63138); assay type: cell-based, rat (β2 rat or human); details: 10 μM loreclezole, n = 5 oocytes
α1β2γ2L GABAAR [2] = target: T1, α1β2γ2L GABAAR; assay: Functional competition assay

Structure (SMILES): [Cl-].[Cl-].[Zn+2] [ZnCl2]
- change of GABA responses (positive = potentiation) (α1β2(N265S)γ2S GABAAR; 10 μM ZnCl2 pre-applied 60 s then co-applied with GABA): +11 ± 1%

Structure (SMILES): Cl/C(=C\n1cncn1)c1ccc(Cl)cc1Cl [loreclezole, reference compound]
- potentiation of the responses to low GABA (α1β2(N265S)γ2S GABAAR; 10 μM loreclezole, n = 4 oocytes): 36 ± 6%
- EC50 (α1β2γ2L GABAAR [1]): 3.4 ± 0.6 µM
- Kd (α1β2γ2L GABAAR [1]): 7.1 ± 2 µM
- cLor (α1β2γ2L GABAAR [1]; 10 μM GABA, Eq. 1, n = 6 oocytes): 0.251 ± 0.049 and 0.251
- nH (α1β2γ2L GABAAR [1]; loreclezole, 10 μM GABA, Hill equation): 1.27 ± 0.41
- potentiation of the responses to low GABA (α1β2γ2S GABAAR): 269 ± 46%
- potentiation of the peak response to GABA (α1β2γ2L GABAAR [2]; 10 μM loreclezole, 0.75 μM GABA): 643 ± 91%
- enhancement of the peak response from receptors activated by R(+)-etomidate (α1β2γ2L GABAAR [2]; 10 μM loreclezole, 1 μM R(+)-etomidate): 395 ± 48%
- PA of the peak response (α1β2γ2L GABAAR [2]; 0.2–0.5 μM GABA + 3 μM loreclezole): 0.08 ± 0.05

Structure (SMILES): CC(=O)[C@H]1CC[C@H]2[C@@H]3CC[C@@H]4C[C@H](O)CC[C@]4(C)[C@H]3CC[C@]12C [pregnanolone, 1-[(1S,3aS,3bR,5aR,7R,9aS,9bS,11aS)-7-Hydroxy-9a,11a-dimethylhexadecahydro-1H-cyclopenta[a]phenanthren-1-yl]ethan-1-one, reference compound]
- PA of peak response (α1β2γ2L GABAAR [2]; 2 μM pregnanolone alone): 0.005 ± 0.002
